Source: ChEMBL document CHEMBL3632515, “Discovery of an L-alanine ester prodrug of the Hsp90 inhibitor, MPC-3100” (Bioorg Med Chem Lett, 2015)
In brackets after ≈: the same amount, converted by molar mass. Blank lines part the entries; values can stand above or below the compound they belong to. Activity calls are given as the source filed them. The rule behind the calls is not given here.

How the values were obtained:
[1] = test system: NCI-N87; experiment: Antitumor activity against human NCI-N87 cells xenografted in mouse assessed as tumor growth inhibition at 265 mg/kg, po; assay type: functional, organism-based
[2] = Aqueous solubility of the compound in simulated intestinal fluid at pH 6.5 to 6.8; assay type: physicochemical
[3] = test system: Mus musculus; experiment: Oral bioavailability in mouse assessed as MPC-3100; assay type: ADME, organism-based; settings: in vivo
[4] = test system: NCI-N87; experiment: Antitumor activity against human NCI-N87 cells xenografted in mouse assessed as tumor regression; assay type: functional
[5] = Toxicity in po dosed nu+/- mouse; assay type: organism-based; settings: in vivo
[6] = Drug level in simulated intestinal fluid treated with MPC-0767 at pH 6.8 in presence of pancreatin; assay type: physicochemical; settings: simulated gi fluid
[7] = Apparent permeability of the compound at pH 6.2; assay type: physicochemical; settings: not told
[8] = test system: NCI-N87; experiment: Antitumor activity against human NCI-N87 cells xenografted in mouse assessed as tumor growth inhibition at 200 mg/kg, po relative to control; assay type: functional; settings: read-out: TGI
[9] = Cmax in mouse at 200 mg/kg, po administered with 40% captisol by LC-ESI-MS/MS analysis; assay type: ADME, organism-based; design: dose 200 mg/kg, route oral; settings: in vivo
[10] = AUC in mouse at 200 mg/kg, po administered with 40% captisol by LC-ESI-MS/MS analysis; assay type: ADME, organism-based; settings: in vivo
[11] = Kinetic solubility of the compound at pH 6.5; assay type: physicochemical; settings: buffer, read-out: Kinetic_solubility
[12] = Cmax in mouse at 200 mg/kg, po administered with 2% CMC by LC-ESI-MS/MS analysis; assay type: ADME, organism-based; design: dose 200 mg/kg, route oral; settings: in vivo
[13] = AUC in mouse at 200 mg/kg, po administered with 2% CMC by LC-ESI-MS/MS analysis; assay type: ADME, organism-based; settings: in vivo
[14] = Oral bioavailability in mouse at 200 mg/kg administered with 40% captisol by LC-ESI-MS/MS analysis; assay type: ADME, organism-based; settings: in vivo
[15] = test system: Liver microsome; experiment: Drug level in human liver microsomes treated with MPC-0767; assay type: ADME
[16] = test system: Liver; experiment: Drug level in mouse liver microsomes treated with MPC-0767; assay type: ADME
[17] = Tmax in mouse at 200 mg/kg, po administered with 2% CMC by LC-ESI-MS/MS analysis; assay type: ADME, organism-based; settings: in vivo
[18] = Aqueous solubility of the compound in simulated intestinal fluid at pH 6.8; assay type: physicochemical
[19] = test system: Plasma; experiment: Drug level in mouse plasma treated with MPC-0767; assay type: ADME, cell-free
[20] = Oral bioavailability in mouse at 200 mg/kg administered with 2% CMC by LC-ESI-MS/MS analysis; assay type: ADME, organism-based; settings: in vivo
[21] = Tmax in mouse at 200 mg/kg, po administered with 40% captisol by LC-ESI-MS/MS analysis; assay type: ADME, organism-based; settings: in vivo
[22] = test system: Mus musculus; experiment: Toxicity in nu+/- mouse assessed as mortality at 286 mg/kg, po; assay type: organism-based; settings: in vivo
[23] = test system: Liver; experiment: Prodrug conversion in mouse liver microsomes assessed as formation of MPC-3100; assay type: ADME
[24] = Half life in phosphate buffer at pH 7.4; assay type: physicochemical
[25] = Half life in human plasma; assay type: ADME, cell-free
[26] = test system: Liver microsome; experiment: Prodrug conversion in human liver microsomes assessed as formation of MPC-3100; assay type: ADME
[27] = Half life in simulated gastric fluid at pH 1.2 in presence of pepsin; assay type: ADME; settings: simulated gastric fluid with pepsin
[28] = Half life in mouse liver microsomes in absence of NADPH; assay type: ADME
[29] = test system: Mus musculus; experiment: AUC in mouse assessed as MPC-3100 at 265 mg/kg, po administered with 2% CMC by LC-ESI-MS/MS analysis; assay type: ADME, organism-based; settings: in vivo
[30] = test system: Mus musculus; experiment: Cmax in mouse assessed as MPC-3100 at 265 mg/kg, po administered with 2% CMC by LC-ESI-MS/MS analysis; assay type: ADME, organism-based; design: dose 265 mg/kg, route oral; settings: in vivo
[31] = test system: Mus musculus; experiment: Tmax in mouse assessed as MPC-3100 at 265 mg/kg, po administered with 2% CMC by LC-ESI-MS/MS analysis; assay type: ADME, organism-based; settings: in vivo
[32] = Half life in simulated intestinal fluid at pH 6.8 in presence of pancreatin; assay type: ADME; settings: simulated intestinal fluid with pancreatin
[33] = Half life in mouse plasma; assay type: ADME, cell-free
[34] = test system: Mus musculus; experiment: Oral bioavailability in mouse assessed as MPC-3100 at 265 mg/kg administered with 2% CMC by LC-ESI-MS/MS analysis; assay type: ADME, organism-based; settings: in vivo
[35] = Half life in mouse liver microsomes in presence of NADPH; assay type: ADME
[36] = Half life in human liver microsomes in presence of NADPH; assay type: ADME
[37] = test system: Mus musculus; experiment: Toxicity in mouse xenografted with human NCI-N87 cells assessed as body weight loss at 265 mg/kg, po; assay type: organism-based; settings: in vivo
[38] = Half life in simulated intestinal fluid at pH 6.8; assay type: ADME
[39] = Half life in monkey plasma; assay type: ADME, cell-free, Macaca mulatta; settings: rhesus monkey
[40] = Half life in simulated gastric fluid at pH 1.2; assay type: ADME
[41] = test system: Plasma; experiment: Prodrug conversion in mouse plasma assessed as formation of MPC-3100; assay type: ADME, cell-free
[42] = Half life in human liver microsomes in absence of NADPH; assay type: ADME

SMILES: C[C@H](N)C(=O)O[C@@H](C)C(=O)N1CCC(CCn2c(Sc3cc4c(cc3Br)OCO4)nc3c(N)ncnc32)CC1
TGI [1]: Active

SMILES: C[C@H](OC(=O)[C@@H](N)CCCCN)C(=O)N1CCC(CCn2c(Sc3cc4c(cc3Br)OCO4)nc3c(N)ncnc32)CC1
solubility [2]: > 1000 µg/mL
F [3]: > 40%
TGI [4]: >40%

SMILES: C[C@H](N)C(=O)O[C@@H](C)C(=O)N1CCC(CCn2c(Sc3cc4c(cc3Br)OCO4)nc3c(N)ncnc32)CC1.Cl.Cl
MTD [5]: 252 mg/kg

Drug metabolism [6]: metabolite_detected
Papp [7]: 420 ×10⁻⁶ cm/s
Cmax [9]: 24900 ng/mL
AUC [10]: 113000 ng·h/mL
solubility kinetic [11]: 10.2 µg/mL (≈ 18.6 µM)
Cmax [12]: 7370 ng/mL
AUC [13]: 35100 ng·h/mL
bioavailability [14]: 67%
Drug metabolism [15]: metabolite_detected
Drug metabolism [16]: metabolite_detected
Tmax [17]: 0.3 h
solubility [18]: 7.5 µg/mL (≈ 13.6 µM)
Drug metabolism [19]: metabolite_detected
bioavailability [20]: 21%
Tmax [21]: 1 h
SMILES: C[C@H](O)C(=O)N1CCC(CCn2c(Sc3cc4c(cc3Br)OCO4)nc3c(N)ncnc32)CC1
inhibition in vivo at 200 mg/kg [8]: 46%

SMILES: C[C@H](OC(=O)[C@@H](N)CCCCN)C(=O)N1CCC(CCn2c(Sc3cc4c(cc3Br)OCO4)nc3c(N)ncnc32)CC1.Cl.Cl.Cl
Activity [22]: Toxic

SMILES: CS(=O)(=O)O.C[C@H](N)C(=O)O[C@@H](C)C(=O)N1CCC(CCn2c(Sc3cc4c(cc3Br)OCO4)nc3c(N)ncnc32)CC1
Drug metabolism [23]: metabolite_detected
Papp [7]: 2.7 ×10⁻⁶ cm/s
solubility [2]: > 1000 µg/mL
half-life [24]: 2.42 h
half-life [25]: 2.48 h
Drug metabolism [26]: metabolite_detected
half-life [27]: > 4 h
solubility kinetic [11]: 536 µg/mL
half-life [28]: < 2 min
AUC [29]: 94194 ng·h/mL
Cmax [30]: 21562 ng/mL
Tmax [31]: 1 h
half-life [32]: 0.367 h
half-life [33]: < 2 min
F [34]: 56%
half-life [35]: < 2 min
half-life [36]: 2 min
Activity [37]: Non-toxic
half-life [38]: 2.88 h
half-life [39]: 5 h
half-life [40]: > 4 h
Drug metabolism [41]: metabolite_detected
half-life [42]: 2 min
